In patent publication US20140227318A1, “SLEEP QUALITY IMPROVING AGENT” (LION CORPORATION, priority 2011, published 2014):

Assays:
male C57BL/6 mice = experiment: Measurement of amount of activity of mice (sleep inducing effect); type: in vivo, mouse; conditions: oral; for CUMULATIVE AMOUNT OF ACTIVITY 6 HOURS AFTER ADMINISTRATION: n=8; for sleep inducing effect: conclusion from amount of activity
Protocol: To check the sleep inducing effect of the S-adenosylmethionine-containing yeast, the following test was performed using respective samples shown in TABLE 1.
The S-adenosylmethionine-containing yeast (the sample in Example 1) used was “AMee (trade name)” manufactured by IWATA CHEMICAL CO., LTD. “Nissin Super Camellia dry yeast (trade name)” manufactured by Nisshin Foods Inc. was used as a yeast containing no adenosylmethionine (the sample in Comparative Example 2). S-adenosylmethionine disulfate tosylate (the sample in Comparative Example 3) used was S-adenosylmethionine disulfate tosylate manufactured by CHEMaster. The sample in Comparative Example 2 and the sample in Comparative Example 3 were mixed and used as a mixture of the yeast containing no S-adenosylmethionine and S-adenosylmethionine disulfate tosylate (the sample in Comparative Example 4). S-adenosylmethionine chloride used in Comparative Example 5 (the sample in Comparative Example 5) was a reagent from
SIGMA. In each of Example 1 and Comparative Examples 2, 3, 4, and 5, a suspension of the sample in a 0.5% by mass aqueous methyl cellulose solution was prepared and used as a sample solution for an experiment. A 0.5% by mass aqueous methyl cellulose solution (the sample in Comparative Example 1) was used as a control solution.
When a sample has the function of inducing sleep, the amount of activity always decreases after administration of the sample. Therefore, the sleep inducing effect of each sample was evaluated by determining whether or not the administration of the sample solution to a mouse caused a reduction in the amount of activity.
8-Week old or 9-week old male C57BL/6 mice were purchased from Japan SLC, Inc. and acclimatized for 3 to 6 days. The amount of activity during acclimatization was used to divide the mice into administration groups. Immediately before the onset of the dark period, a sample solution or the control solution was orally administered in an amount of 10 mL/kg per body weight, and the amount of activity was measured for 24 hours after administration. Each administration group included 8 mice (n=8).
The amount of activity was measured under the following conditions. The mice were raised in individual cages, and an infrared camera was disposed above each cage. The imaging range of the infrared camera was divided into 64 sections, and the number of occurrences that the mouse crossed a section was measured. The number of occurrences was collected every 30 minutes.
In FIG. 2, “**” represents that a significant difference was found at p<0.01.

[1] = intravenous injection or intramuscular injection; cited from earlier work

## C[S+](CC[C@H](N)C(=O)O)C[C@H]1O[C@@H](n2cnc3c(N)ncnc32)[C@H](O)[C@@H]1O.[Cl-] (stereo partly drawn) [Comparative Example 5, S-adenosylmethionine chloride]
Male C57BL/6 mice; 150 mg/kg (137 mg/kg in terms of S-adenosylmethionine)
  CUMULATIVE AMOUNT OF ACTIVITY 6 HOURS AFTER ADMINISTRATION: 7068 NUMBER OF OCCURRENCES/6 HOURS
Male C57BL/6 mice
  sleep inducing effect: no sleep inducing effect

## S-adenosylmethionine disulfate tosylate [Comparative Example 3]
[1]
  influence on sleep onset latency: no influence
  length of NREM sleep (stage 4): extended
Male C57BL/6 mice; 293 mg/kg (150 mg/kg in terms of S-adenosylmethionine)
  CUMULATIVE AMOUNT OF ACTIVITY 6 HOURS AFTER ADMINISTRATION: 8618 NUMBER OF OCCURRENCES/6 HOURS
Male C57BL/6 mice
  sleep inducing effect: no sleep inducing effect
